Results: patent US12071411B2, “Inhibitors of HIF-2α and methods of use thereof” (ARCUS BIOSCIENCES, INC., priority 2021, dated 2024)

How the values were obtained:
HIF-2α [1] = biological target: T1, HIF-2α (Homo sapiens, UniProt Q99814); test: HIF-2α Luciferase Reporter Assay (serum), HRE-luciferase 786-0 cells in 100% human serum; assay type: cell-based; conditions: for IC50: 100% human serum, 786-0 reporter cells, overnight incubation, read-out: Serum Potency; for Serum Shift (approximate): ratio of IC50 in 100% serum to IC50 in serum free conditions
In short: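 786-0 cells stably expressing an HRE-luciferase reporter were plated and rested 3 h. They were then treated overnight at 37 °C with compound diluted in 100% human serum. Serum was replaced with Opti-MEM, ONE-Glo luminescence was read, and IC50 came from a 4-parameter logistic fit.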

[2] = biological target: T2, Biotin tagged HIF-2α protein containing PAS-B domain (240-350) (Homo sapiens, UniProt Q99814); test: HIF-2α Scintillation Proximity Assay (SPA) binding assay; conditions: 50 nM HIF-2α protein, 25 nM 3H-tracer, 2% DMSO
T2 construct: Biotin tagged HIF-2α protein containing PAS-B domain (240-350) was prepared and purified in-house; made in house
Procedure: HIF-2α Scintillation Proximity Assay (SPA) Binding Assay:
Biotin tagged HIF-2α protein containing PAS-B domain (240-350) was prepared and purified in-house.
Compounds solubilized in DMSO were dispensed into a white 384-well polystyrene non-binding flat clear bottom plate (Greiner Bio-One, Cat #781903) using an HP D300 dispenser. Ten microliters of biotinylated HIF-2α protein in buffer (25 mM Tris-HCl, pH 7.4, 150 mM NaCl, 0.15% BSA and 0.001% Tween 20) was added to the compound wells and allowed to incubate for 1 hour at room temperature. Ten microliters of SPA bead mix were added to the wells and incubated for an additional 45 minutes, followed by 10 ul of ^3H-tracer solution. Final assay conditions comprised 50 nM HIF-2α protein, 25 nM radiolabeled tracer and 3 ug beads per well with compounds in 2% DMSO. The plate was read using a MicroBeta Microplate Counter (PerkinElmer) for luminescence detection. The IC50 values of the test compounds were determined from compound dose response curves fitted using a standard four parameter fit equation and are reported in Table 2.

HIF-2α [3] = biological target: T1, HIF-2α; test: HIF-2α Luciferase Reporter Assay (serum free) in HIF-Luc-786-0 cells; assay type: cell-based; conditions: Opti-MEM, 786-0 reporter cells, 20 hours incubation
In short: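 786-0 cells stably transduced with HIF luciferase reporter, 20,000 cells/well in serum-free Opti-MEM, compounds (50 uM downward, 1% DMSO) 20 h at 37 °C. ONE-Glo luminescence normalized to DMSO and no-cell controls; IC50 from four-parameter fit.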

T1 sequence (Q99814 whole entry): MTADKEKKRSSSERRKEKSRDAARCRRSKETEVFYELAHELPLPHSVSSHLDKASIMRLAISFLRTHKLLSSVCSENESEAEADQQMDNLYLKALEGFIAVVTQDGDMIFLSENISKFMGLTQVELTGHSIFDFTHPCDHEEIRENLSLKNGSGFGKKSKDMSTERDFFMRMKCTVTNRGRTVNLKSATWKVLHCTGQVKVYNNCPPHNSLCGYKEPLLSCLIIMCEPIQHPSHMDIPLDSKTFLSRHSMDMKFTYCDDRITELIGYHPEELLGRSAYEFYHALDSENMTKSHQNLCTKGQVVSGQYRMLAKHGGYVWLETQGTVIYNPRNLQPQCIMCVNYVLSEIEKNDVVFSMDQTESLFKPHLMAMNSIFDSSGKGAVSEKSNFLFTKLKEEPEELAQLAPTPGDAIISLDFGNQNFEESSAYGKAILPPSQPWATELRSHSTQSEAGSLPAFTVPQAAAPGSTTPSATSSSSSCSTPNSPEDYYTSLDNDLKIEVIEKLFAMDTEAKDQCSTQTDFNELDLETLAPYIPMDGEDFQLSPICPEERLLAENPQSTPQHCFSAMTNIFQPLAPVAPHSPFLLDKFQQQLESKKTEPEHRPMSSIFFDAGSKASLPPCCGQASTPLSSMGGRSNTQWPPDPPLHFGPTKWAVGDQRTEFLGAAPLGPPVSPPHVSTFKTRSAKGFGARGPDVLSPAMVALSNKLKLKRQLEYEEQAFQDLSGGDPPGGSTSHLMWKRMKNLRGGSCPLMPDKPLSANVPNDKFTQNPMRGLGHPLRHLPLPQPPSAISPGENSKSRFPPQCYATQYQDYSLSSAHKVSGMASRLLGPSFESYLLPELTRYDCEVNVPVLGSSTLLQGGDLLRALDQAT
T2 sequence (Q99814 240-350): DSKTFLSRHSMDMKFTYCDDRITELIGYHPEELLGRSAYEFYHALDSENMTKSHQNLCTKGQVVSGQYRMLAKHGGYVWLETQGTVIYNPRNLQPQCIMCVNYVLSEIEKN

SMILES	IC50 (HIF-2α [1])	Serum Shift (approximate) (HIF-2α [1])	IC50 [2]	IC50 (HIF-2α [3])
CCCCn1nc(C(F)(F)F)c2c1CCC(F)(F)[C@H]2O [Example 39, (4S)-1-butyl-5,5-difluoro-3-(trifluoromethyl)-6,7-dihydro-4H-indazol-4-ol]	> 1000 nM	>39	100 to 1000 nM	100 to 1000 nM
CC(C)CCn1nc(C(F)(F)F)c2c1CCC(F)(F)[C@H]2O [Example 40, (4S)-5,5-difluoro-1-(3-methylbutyl)-3-(trifluoromethyl)-6,7-dihydro-4H-indazol-4-ol]	> 1000 nM	31	100 to 1000 nM	100 to 1000 nM
O[C@H]1c2c(C(F)(F)F)nn(CCCC(F)(F)F)c2CCC1(F)F [Example 41, (4S)-5,5-difluoro-1-(4,4,4-trifluorobutyl)-3-(trifluoromethyl)-6,7-dihydro-4H-indazol-4-ol]	100 to 1000 nM	12	< 100 nM	< 100 nM
CS(=O)(=O)CCn1nc(C(F)(F)F)c2c1CCC(F)(F)[C@H]2O [Example 42, (4S)-5,5-difluoro-1-(2-methylsulfonylethyl)-3-(trifluoromethyl)-6,7-dihydro-4H-indazol-4-ol]	> 1000 nM	6	100 to 1000 nM	100 to 1000 nM
O[C@H]1c2c(C(F)(F)F)nn(CCC3CC(F)(F)C3)c2CCC1(F)F [Example 44, (4S)-1-[2-(3,3-difluorocyclobutyl)ethyl]-5,5-difluoro-3-(trifluoromethyl)-6,7-dihydro-4H-indazol-4-ol]	> 1000 nM	6	100 to 1000 nM	100 to 1000 nM
O=S1(=O)CC(Cn2nc(C(F)(F)F)c3c2CCC(F)(F)[C@H]3O)C1 [Example 46, (4S)-1-[(1,1-dioxothietan-3-yl)methyl]-5,5-difluoro-3-(trifluoromethyl)-6,7-dihydro-4H-indazol-4-ol]	100 to 1000 nM	2	100 to 1000 nM	100 to 1000 nM
CC(CCn1nc(C#N)c2c1CCC(F)(F)[C@H]2O)C(F)(F)F (stereo partly drawn) [Example 49, (4S)-5,5-difluoro-4-hydroxy-1-(4,4,4-trifluoro-3-methylbutyl)-6,7-dihydro-4H-indazole-3-carbonitrile]	> 1000 nM	7	100 to 1000 nM	100 to 1000 nM
O[C@H]1c2c(C(F)(F)F)nn(CCC3CC3(F)F)c2CC1(F)F (stereo partly drawn) [Example 58, (4S)-1-[2-(2,2-difluorocyclopropyl)ethyl]-5,5-difluoro-3-(trifluoromethyl)-4,6-dihydrocyclopenta[c]pyrazol-4-ol]	100 to 1000 nM	3	< 100 nM	< 100 nM
O[C@H]1c2c(C(F)(F)F)nn(CCOC(F)(F)F)c2CCC1(F)F [Example 60, (4S)-5,5-difluoro-1-[2-(trifluoromethoxy)ethyl]-3-(trifluoromethyl)-6,7-dihydro-4H-indazol-4-ol]	> 1000 nM	3	> 1000 nM	> 1000 nM
